Holding throughout (type): cell-based, human
The subject of one test is MonoMac-6 cells. Nature of the test: Cytokine Profile Assay (CPA): neopterin production by stimulated MonoMac-6 cells, ELISA. The conditions noted are these: for neopterin release (in words): chemicals, in the presence or absence of IFN-γ. An excerpt: (§1) The instructions of the manufacturers were followed. All these tests are enzyme immunoassays (EIA:s). The principle is that microtiter plate wells are labelled with a cytokine specific capture antibody. If cytokine is present in the samples added to the wells it will be captured to the bottom of the well. […] The reaction is thereafter measured as colour developed after addition of a substrate for the enzyme. The values for the test wells are compared with a standard curve obtained by adding a series of known amounts of cytokine. The values obtained for control wells with no substance added are used as background values for cytokine levels.
The myelomonocytic cell line MonoMac-6 (obtained from DSMZ, accession number ACC 124, Prof. H. W. L. Ziegler-Heitbrock, Inst. For Immunology, University of Munich, Munich) was cultured in cell culture flasks (Corning). Cells were cultured in RPMI 1640 medium (Gibco BRL), containing 20 mM HEPES and L-glutamine and supplemented with 10% heat-inactivated foetal bovine serum (Gibco BRL), penicillin (100 U/mL; Sigma-Aldrich), streptomycin (100 μg/mL; Sigma-Aldrich), sodium pyruvate (1.0 mM;Gibco BRL), human insulin (9 μg/mL; Gibco BRL) and non-essential amino acids (Gibco BRL) or cultured in Panserin 411 (Pan Biotech) supplemented with penicillin (100 U/mL), streptomycin (100 μg/mL).
The cells were split approximately 1:3 the day before stimulation. The stimulation procedure was performed in three steps. The first step was pre-dilution of test substances, to double the final concentration, in cell culture medium. Furthermore, Interferon-γ (IFN-γ) (100 U, PreproTech) was added in the cell culture media for 24 or 48 hours during stimulation of cells with test substances. The number of cells was then determined by trypan blue exclusion and the cells were diluted to twice the final test concentration (2×10^6 cells/mL) if not otherwise indicated and 100 μl of cell suspension was added per well in 96 well tissue culture plates (Corning). Finally, a 100 μl of pre-diluted test substance (triplicate cultures) was added to the tissue culture plates. […] The stimulated cells were cultured at 37° C., 5% CO2, for 24 or 48 hours. The cell suspension was transferred to new cell culture plates and stored at −20° C. until analyzed. Thereafter the cell suspension was analyzed for presence of neopterin and IL-10 by ELISA (IBL-Hamburg) following the manufacturers instructions.
(In an ELISA, binding on a coated surface is turned into a signal by an enzyme label.)

The test system of the next test is MM6-cells. Put plainly: CPA: IL-10 levels of stimulated MM6 cells, ELISA. The following applies: 25-200 μg/ml; 48 hours; with IFN-γ 100 U/ml.
From the text: as §1, with “levels. […]” for “levels.”
(§2) The cells were split approximately 1:3 the day before stimulation. […] The number of cells was then determined by trypan blue exclusion and the cells were diluted to twice the final test concentration (2×10^6 cells/mL) if not otherwise indicated and 100 μl of cell suspension was added per well in 96 well tissue culture plates (Corning). […] The cell suspension was transferred to new cell culture plates and stored at −20° C. until analyzed. Thereafter the cell suspension was analyzed for presence of neopterin and IL-10 by ELISA (IBL-Hamburg) following the manufacturers instructions.

The test system of the next test is THP-1 cells. Nature of the test: CPA: neopterin production by stimulated THP-1 cells. The following applies: RPMI+10% FCS, 24 hrs, different concentrations.
From the text: as §1
as §2, with “stimulation. The stimulation procedure was performed in three steps. The first step was pre-dilution of test substances, to double the final concentration, in cell culture medium.” for “stimulation.”

Where [1] appears, read: proteins, RPMI+10% FCS, 24 hrs, with IFN-γ 100 U/ml, over the tested concentrations.

Where two headings read alike, the source gives them in different places.

With `CCOC(=O)c1ccc(N)cc1` [benzocaine, Benzocaine, reference compound], the “neopterin response (in words)” value with MonoMac-6 cells (chemical at 30 μg/ml, with IFN-γ, RPMI+10% FCS, 24 hrs) is reported as “induced a neopterin response above background levels”.
With `Oc1ccccc1` [phenol, reference compound], the “neopterin response (in words)” value in the test with MonoMac-6 cells is on record as “induced a neopterin response above background levels”.
With “Soy lectin: Lectin: glycine max (soy been) (Medicago), low potential of being allergenic”, the “neopterin response (in words)” value with MonoMac-6 cells (6.6 μg/ml, RPMI+10% FCS, 24 hrs, with IFN-γ) is listed as “did not induce any neopterin response above the levels of control cells”; in the test on MonoMac-6 cells (180 μg/ml, RPMI+10% FCS, 24 hrs, with IFN-γ), “comparable to the cellular response towards Ara h 2 at 6.6 μg/ml”; with MonoMac-6 cells (setting [1]), “Weak cellular neopterin responce”; with MonoMac-6 cells (proteins, RPMI+10% FCS, 24 hrs, with IFN-γ 100 U/ml, over the tested concentrations, listed as soy lectin) it was “did not induce neopterin above background levels”.
On to gelatin, for which the “neopterin response (in words)” value in the test on MonoMac-6 cells (setting [1]) is recorded as “did not induce any neopterin production above the background levels”. Besides, the “IL-10 levels (in words)” value in the test with MM6-cells is reported as “did not induce IL-10 above background levels”.
As to `[Cl][Pt-2]([Cl])([Cl])([Cl])([Cl])[Cl].[NH4+].[NH4+]` [HCPt, Ammonium hexachloroplatinate, reference compound], in the test on MonoMac-6 cells (RPMI+10% FCS, 24 hrs), the “neopterin release (in words)” value was “none of the chemicals tested induced any neopterin release above background levels”.
Still for that read-out and setting: for `O=[N+]([O-])c1ccc(Cl)c([N+](=O)[O-])c1` [DNCB, 2,4 Dinitrocholorobenzene, reference compound] the value was “none of the chemicals tested induced any neopterin release above background levels”.
Turning to Lipopolysaccharide [LPS], in the test on THP-1 cells, the “neopterin response (in words)” value is listed as “Dose response was seen”.

Values taken from US20110053163A1, “Biomarker” (BIOVATOR TECHNOLOGIES AB, priority 2007, published 2011).
